Assays:
Type in all cases: cell-based
Escherichia Coli = experiment: Antimicrobial testing by agar dilution, E. Coli; settings: after 10, 20, 40 and 60 minutes at all dilutions 1:100, 1:200, 1:400, 1:800
Description: (§1) The antimicrobial properties of the [4,4-bis(4-nitrophenyl)-2,5-dioxoimidazolidin-1-yl]acetic acid were studied by the method of agar dilution. Test solutions of each compound was prepared in concentration of 1% using dimethylformamide as a solvent then they are diluted in physiological solution to obtain the final experimental dilutions 1:100, 1:200, 1:400, 1:800. The effect of these substances are compared with furacillin in a controlable study. The testing microbes used were gram positive bacteria Staphylococcus Aereus, gram negative bacteria Escherichia Coli, Pseudomonas aeruginosa and Candida albicans fungi were taken.
(§2) The experiments used for this survey were meat-pentonlu agar (EPA) for cultivation of bacteria and Saburo environment for fungi. Each experiment used 1 ml of test solution on each plate 500 min. Add 2 drops of emulsified with microbes feel. All experimental samples were taken from the agar after 10, 20, 40, 60 minutes in the environment on the basis of Patrk planted. Bacteria were cultivated at a temperature of 37° C. for 1 day and the mushroom was kept in a thermostat for […] at a temperature of 28° C. in the. Then results were checked.

Pseudomonas aeruginosa = experiment: Antimicrobial testing by agar dilution, Ps. aeruginosa; settings: after 10, 20, 40 and 60 minutes at all dilutions 1:100, 1:200, 1:400, 1:800
Description: as §1, §2

Candida albicans = experiment: Antimicrobial testing by agar dilution, Candida albicans; settings: Candida albicans fungi, after 10, 20, 40 and 60 minutes at all dilutions 1:100, 1:200, 1:400, 1:800
Description: as §1, §2

Staphylococcus Aereus = experiment: Antimicrobial testing by agar dilution, St. Aereus; settings: after 10, 20, 40 and 60 minutes at all dilutions 1:100, 1:200, 1:400, 1:800
Description: as §1, §2

Measured: inhibition activity

O=C(O)CN1C(=O)NC(c2ccc([N+](=O)[O-])cc2)(c2ccc([N+](=O)[O-])cc2)C1=O [[4,4-bis(4-nitrophenyl)-2,5-dioxoimidazolidin-1-yl]acetic acid]
higher inhibition activity: all assays above

From patent US11999700B1, “[4,4-bis(4-nitrophenyl)-2,5-dioxoimidazolidin-1-yl]acetic acid as an antimicrobial compound” (KING FAISAL UNIVERSITY, priority 2023, dated 2024)
